# “And” between values parts separate entries of the source, which are not always exact repeats. Identical values can stand only once.
# How the values were obtained:
# morphine analgesia = assay: Increase in analgesia of morphine, Tail Flick Test (Experiment 1); type: in vivo, rats
# In short: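 Tail-flick latency to 75 °C radiant heat, capped at 8 s, measured in male non-fasted rats weighing 150-200 g. Percentage change per animal derived from pre-treatment baseline versus post-drug readings at 10-90 min (10, 20, 30, 45, 60, 90 min).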
# [1] = test system: CCK-8 induced contraction of guinea pig gall bladder; assay: Anti-CCK activity on gall bladder strips in vitro; settings: CCK-8 10 ng/ml
# In short: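 CCK-8 at 10 ng/ml drove isometric contraction of guinea pig gall bladder strips held at 32 °C in oxygenated Krebs (O2/CO2 95:5). Antagonism was measured at graded compound concentrations and reported as ED50, in μg/ml, for 50% inhibition of the contraction.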
# [2] = test system: CCK-8 induced contraction of guinea pig gall bladder; assay: Anti-CCK-8 activity on gall bladders in situ; type: in vivo; settings: for percentage inhibition of contracting effect of CCK-8: single experiments
# Experimental: In order to confirm the evidence of the studies in vitro several of the more interesting compounds were tested in vivo on guinea pig gall baldders in situ.
# The method used is that described by Ljungberg (Svensk. Farm. Tidskr. 68, 351-354, 1964).
# Guinea pigs having a weight of about 400 g, anaesthetised with urethane, were used; the substances under examination were administered intraveneously into the jugular vein.
# The responses of the gall bladders to the substances under test were detected by means of a force transducer and recorded by means of a microdynamometer. The optimum contracting dose was chosen as 10 ng/kg of CCK-8. The antagonist compounds tested were administered in increasing doses so as to enable the calculation of an ED50 value, that is in the dose (in mg/kg i.v.) capable of inhibiting 50% of the contracting effect of 10 ng/kg i.v. of CCK-8.
# The results obtained are given in Table 7 below, which gives the doses used and the effects obtained expressed as a percentage inhibition of the contracting effect of CCK-8 as well as the ED50 found.
# [3] = test system: intestinal transit of carbon; assay: Anti-spastic activity, vegetable carbon intestinal transit test; type: in vivo, mice; settings: Mus musculus, ip; read-out: antispastic activity ED50 (dose reducing intestinal transit of carbon by 50%)
# Text: The anti-spastic activity which the present compounds exert on the entire digestive system is also notable. Measured in mice with the vegetable carbon test (rate of transit through the stomach and the intestine), this activity is illustrated in the following table.
# claimed administered intraperitoneally in mice. Values
# expressed as the ED 50 in mg/kg, that is the dose which
# reduces the intestinal transit of carbon by 50%
# [4] = test system: CCK-8 induced contraction of rabbit colon; assay: Anti-spastic activity in the colon stimulated by CCK-8; type: in vivo
# Experimental: A much more specific anti-spastic activity, that is adhering much more to a physiological situation, is illustrated by the following experiment.
# The abdomen of an anaesthetised rabbit was cut open to show the transverse colon. A small balloon full of water was inserted at the point established and connected to a pressure transducer by means of a polythene cannula filled with water.
# The optimum sensitivity was fixed in relation to the physiological conditions and the products were administered through the femoral vein. Contractions were induced by the administration of 100 ng/kg of CCK.
# biliary flow = assay: Biliary flow (choleretic activity); type: in vivo, rat
# Experimental: The following experiment was carried out: a cannula was inserted in the bile duct of a rat anaesthetised with urethane, together with a small needle connected to a polythene tube, and the bile liquid was thus collected. The collection was carried out for one hour before the intravenous administration of the tested compounds and for a further two hours after administration, the samples collected at 30 minute intervals being weighed.
# In order to prevent possible dehydration of the animals, 0.5 ml of physiological solution was administered at 30 minute intervals up to a total of 3 ml.
# normal pancreatic cells = assay: Trophic action of CCK-8 on normal pancreas; type: in vivo, hamsters; settings: CCK-8 10 mcg/kg 3 times per day
# Text: (§1) The anti-cholecystokinin effect of the most powerful of the compounds which are the subject of the present invention, that is the compound C-7, on the trophic activity of CCK on normal pancreatic cells and on those of a pancreatic adenocarcinoma is to be studied.
# (§2) Male hamsters were inoculated in the cheek pouches with a suspension of 1×10^5 tumoral cells of a pancreatic adenocarcinoma. Five days after the inoculation the animals were divided at random into 4 groups of 10 animals each, that is, a control group, a group of animals treated with 10 μg/kg of CCK-8 three times a day, a group of animals treated with 5 mg/kg i.p. of compound C-7 three times a day, and a fourth group treated simultaneously with the compound C-7 and CCK-8 in the manner described above.
# (§3) After 15 days of this treatment, the animals were killed, and the normal pancreas and the inoculated pancreatic tumours in the cheek pouches were collected and weighed. The DNA was extracted and measured according to conventional techniques.
# (§4) The results thus obtained are given in Table 13, expressed as mean values (±S.E.)
# [5] = test system: pancreatic adenocarcinoma; type: in vivo, hamsters
# Text: as §1, §2, §3, §4
# [6] = CCK-8 10 mcg/kg 3 times per day
compound,measurement,setting,value
"CCCCN(CCCC)C(=O)C(CCC(=O)O)NC(=O)c1ccc(Cl)c(Cl)c1 (racemic) [Compound C-6, D,L-4-(3,4-dichloro-benzoyl-amino)-5-(di-n-butylamino)-5-oxo-pentanoic acid]",percentage variation of latency of pain sensation,"morphine analgesia; 10', compound 10 mg/kg i.p. + morphine 2 mg/kg",89.2%
same,percentage variation of latency of pain sensation,"morphine analgesia; 20', compound 10 mg/kg i.p. + morphine 2 mg/kg",91.3 ± 8.7%
same,percentage variation of latency of pain sensation,"morphine analgesia; 30', compound 10 mg/kg i.p. + morphine 2 mg/kg",83.6 ± 10.0%
same,percentage variation of latency of pain sensation,"morphine analgesia; 45', compound 10 mg/kg i.p. + morphine 2 mg/kg",82.1 ± 16.6%
same,percentage variation of latency of pain sensation,"morphine analgesia; 60', compound 10 mg/kg i.p. + morphine 2 mg/kg",79.8 ± 17.0%
same,percentage variation of latency of pain sensation,"morphine analgesia; 90', compound 10 mg/kg i.p. + morphine 2 mg/kg",38.2%
same,"M (10-90) ± SE, mean percentage variation of latency","morphine analgesia; mean 10-90 min, compound 10 mg/kg i.p. + morphine 2 mg/kg",77.4 ± 19.6%
same,Power ratio with respect to morphine alone,"morphine analgesia; rat, in vivo",2.59
same,ED50 (concentration antagonising 50% of contracting effect of CCK-8),[1],0.33 µg/mL
same,percentage inhibition of contracting effect of CCK-8,[2]; 0.01 mg/kg i.v.,-12.9%
same,percentage inhibition of contracting effect of CCK-8,[2]; 0.03 mg/kg i.v.,-49.7% and -40.0%
same,block of gall bladder contractions induced by CCK-8,[2]; 0.1 mg/kg,can block gall bladder contractions induced by CCK-8
same,percentage inhibition of contracting effect of CCK-8,[2]; 1 mg/kg i.v.,-100.0%
same,ED50,"[2]; Cavia porcellus, iv, CCK-8 10 ng/kg i.v., read-out: ED50 (inhibition of 50% of contracting effect of CCK-8)",0.05 mg/kg
same,ED50,[3],29.5 mg/kg
same,effect on CCK-8 stimulated colon,"[4]; 0.1 mg/kg iv, single experiments",0
same,ED50,"[4]; Oryctolagus cuniculus, iv, CCK 100 ng/kg",1.53 mg/kg
same,% increase in biliary flow with respect to controls,biliary flow; 3 mg/kg i.v.,+40.4%
same,% increase in biliary flow with respect to controls,biliary flow; 10 mg/kg i.v.,+69.8%
same,% increase in biliary flow with respect to controls,biliary flow; 30 mg/kg i.v.,+88.7%
same,ED50,"biliary flow; Rattus norvegicus, iv, average over 2 hours, read-out: ED50 (dose causing 50% increase in biliary flow)",4.2 mg/kg
CCK-8: the biologically active component of the cholecystokinin hormone [reference compound],Pancreas weight,normal pancreatic cells,600 ± 54.1 mg
same,Pancreatic DNA,normal pancreatic cells,1.5 ± 0.11 mg
same,TUMORAL DNA,[5]; [6],0.7 ± 0.13 mg
same,Weight of Pancreatic Carcinoma,[5]; [6],180 ± 15.2 mg
same,animals died during the treatment,"[5]; CCK-8 10 mcg/kg 3 times per day, of 10",2 animals
same,effect on growth of pancreatic adenocarcinoma / CCK-8 actions,"[5]; hamster, in vivo",stimulates the growth of a pancreatic adenocarcinoma

# Reference: US4791215A, “Derivatives of glutamic acid and aspartic acid” (priority 1984, dated 1988)
